# Measured values from paper PMC4770311, “Discovery and Characterization of GSK2801, a Selective Chemical Probe for the Bromodomains BAZ2A and BAZ2B” (Journal of Medicinal Chemistry, 2015).
# How the values were obtained:
# [1] = target: T1, BAZ2A (Homo sapiens, UniProt Q9UIF9); assay: AlphaScreen assay BAZ2A; format: binding; settings: average of three replicates ± SEM
# T1 construct: Recombinant BAZ2A and BAZ2B bromodomains were expressed in; made in house; host or cells: E. coli
# T1 sequence (Q9UIF9 1793-1897 limits assumed): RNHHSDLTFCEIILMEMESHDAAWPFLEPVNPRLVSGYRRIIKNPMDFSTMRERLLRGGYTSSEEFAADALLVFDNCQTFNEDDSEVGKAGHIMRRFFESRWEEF
# Method: AlphaScreen: AlphaScreen was performed as described previously 10, with minor modifications from the manufacturers protocol (PerkinElmer, USA). Briefly, all reagents were diluted in the recommended buffer (50 mM HEPES, 100 mM NaCl, 0.1% BSA; pH = 7.4) supplemented with 0.05% CHAPS and allowed to equilibrate to room temperature prior to […]
# Plates were sealed and incubated at room temperature for 30 min. 4 μL of streptavidin-coated donor beads (10ug/mL final) and 4 μL of nickel chelate acceptor beads (10 μg/ml final) were then added under low light conditions. Plates were foil sealed to protect from light, incubated at room temperature for 60 min and read on a PHERAstar FS plate reader (BMG Labtech, Germany) using an AlphaScreen 680 excitation/570 emission filter set.
# Fragments were dissolved in ethylene glycol to overcome sensitivity of the bromodomain assay to DMSO and allow compounds to be screened at mM concentrations. IC50 […]
# measurements were taken over a 12 point 1:2 serial dilution of compound. IC50s were calculated in GraphPad Prism 5 (GraphPad Software, USA). […]
# [2] = tested on: BRD4; set-up: method as in PMID 21804994, PMID 22136404; settings: reported activity; read-out: TR-FRET assay: BRD4; cited from earlier work
# [3] = tested on: BRD2; set-up: method as in PMID 21804994, PMID 22136404; settings: reported activity; read-out: TR-FRET assay: BRD2; cited from earlier work
smiles,measurement,setting,value
CC(=O)c1cc(-c2ccccn2)c2ccccn12 [Compound 1],IC50,[1],1.5 ± 0.06 µM
same,IC50,[2],2 µM
same,IC50,[3],2 µM
